Results taken from ChEMBL document CHEMBL2413006, “Acyclic phosph(on)ate inhibitors of Plasmodium falciparum hypoxanthine-guanine-xanthine phosphoribosyltransferase” (Bioorg Med Chem, 2013).

Key:
[1] = target: T1, Hypoxanthine-guanine phosphoribosyltransferase (Homo sapiens, UniProt P00492); assay: Inhibition of human HGPRT using xanthine/PRPP assessed as xanthine/guanine conversion to […]guanosine-5'-monophosphate by spectrophotometry in presence of PRPP
T1 sequence (P00492 whole entry): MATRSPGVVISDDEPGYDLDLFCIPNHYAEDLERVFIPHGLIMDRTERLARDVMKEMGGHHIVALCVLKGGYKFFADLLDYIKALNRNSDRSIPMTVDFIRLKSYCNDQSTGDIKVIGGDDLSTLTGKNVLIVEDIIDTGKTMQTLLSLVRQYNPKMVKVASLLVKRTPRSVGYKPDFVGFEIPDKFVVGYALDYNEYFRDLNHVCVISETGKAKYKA

[2] = Inhibition of Plasmodium falciparum HGXPRT assessed as xanthine/guanine conversion to xanthosine-5'-monophosphate/guanosine-5'-monophosphate by spectrophotometry in presence of PRPP

SMILES	Ki [1] [µM]	Ki [2] [µM]
O=c1[nH]cnc2c(CN[C@H](CO)CC(F)P(=O)(O)O)c[nH]c12 (mixture of isomers)	–	0.0012
O=c1[nH]cnc2c(CN[C@@H](CO)CCP(=O)(O)O)c[nH]c12	–	0.0234
O=c1[nH]cnc2c(CNCC(O)CP(=O)(O)O)c[nH]c12 (racemic)	> 10	0.0091
O=c1[nH]cnc2c(CN[C@H](CO)CCP(=O)(O)O)c[nH]c12	–	0.00065
O=c1[nH]cnc2c(CNCP(=O)(O)O)c[nH]c12	> 10	> 20
O=c1[nH]c(Cl)nc2c(CNC(CO)COP(=O)(O)O)c[nH]c12 (racemic)	> 10	9.4
O=c1[nH]cnc2c(CN[C@H](CO)CC(F)(F)P(=O)(O)O)c[nH]c12	> 10	0.087
Nc1nc2c(CN[C@H](CO)COP(=O)(O)O)c[nH]c2c(=O)[nH]1	> 10	0.0143
O=c1[nH]cnc2c(CNCC(CO)CP(=O)(O)O)c[nH]c12 (racemic)	> 10	0.49
O=c1[nH]cnc2c(CNCCP(=O)(O)O)c[nH]c12	> 10	1.9
O=c1[nH]cnc2c(CNC(CO)(CO)COP(=O)(O)O)c[nH]c12	> 10	15.3
O=c1[nH]cnc2c(CNCCCCCP(=O)(O)O)c[nH]c12	> 10	8.6
Nc1nc2c(CN[C@@H](CO)COP(=O)(O)O)c[nH]c2c(=O)[nH]1	> 10	0.65
O=c1[nH]cnc2c(CNCCOP(=O)(O)O)c[nH]c12	> 10	14.4
O=c1[nH]cnc2c(CNC(CO)COP(=O)(O)O)c[nH]c12 (racemic)	> 10	0.019

Second part, led by results:

Ki [1] [µM]	SMILES	Ki [2] [µM]
> 10	O=c1[nH]cnc2c(CCNCCP(=O)(O)O)c[nH]c12	0.62
> 10	Nc1nc2c(CN[C@H](CO)CC(F)(F)P(=O)(O)O)c[nH]c2c(=O)[nH]1	0.1
> 10	O=c1[nH]cnc2c(CN[C@H](CO)[C@H](O)COP(=O)(O)O)c[nH]c12	0.98
> 10	O=c1[nH]cnc2c(CNCCCP(=O)(O)O)n[nH]c12	0.0276
> 10	O=c1[nH]cnc2c(CN[C@H](CO)COP(=O)(O)O)c[nH]c12	0.0024
> 10	O=c1[nH]cnc2c(CNCCCCP(=O)(O)O)c[nH]c12	0.49
11.3	O=c1[nH]cnc2c(CCNCCCP(=O)(O)O)c[nH]c12	> 20
4.9	O=c1[nH]cnc2c(CNCCCP(=O)(O)O)c[nH]c12	0.0106
